According to PubChem BioAssay AID624265 (Broad Institute, 2012):
Active and inactive are the calls of the source.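 The calls were made as follows: active = at a dose no more than twice the top valid tested dose, the fitted curve drops below -35% activity change; inactive = the rest, rising-direction activity included.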

Test system: not listed separately
Assay: NIH3T3 cell viability loss, ATP content – CellTiter-Glo luminescence, cherry-pick, set 2, cytotoxicity control for HSP40 inhibitor project, dose response (AID 624265);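 also: cells exposed to compound for 48 hours before the ATP read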;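 as to activity change, negative = toxicity: 0% = median neutral control signal and -100% = no luminescence left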
Details: NIH3T3 viability, CellTiter-Glo ATP luminescence; at 5.6 µM (top of the series)
For `CC(C)C(=O)NC(c1cccc([N+](=O)[O-])c1)c1ccc2cccnc2c1O` (stereo unspecified), the activity change, negative = toxicity was -21% (inactive).

Same assay, conditions: NIH3T3 viability, CellTiter-Glo ATP luminescence; at 50 µM (top of the series)
With `CCOC(=O)c1ccc(N2C(=O)CC(N3CCC(O)(c4ccc(Cl)cc4)CC3)C2=O)cc1` (stereo unspecified) the activity change, negative = toxicity was -0.824% (inactive).
With `O=C(CCCSc1ccccc1)Nc1nc(-c2ccccn2)cs1` the activity change, negative = toxicity was -1.21% (inactive).
In the case of `CC(C)CSc1n[nH]c(=S)s1`, the activity change, negative = toxicity was 9% (inactive).
For `COc1ccc(N(C)S(=O)(=O)c2ccc(Cl)c(C(=O)NNC(=O)c3ccccc3O)c2)cc1`, the activity change, negative = toxicity was 3.26% (inactive).
In the case of `O/N=C/c1ccccc1OCc1ccc(Cl)cc1`, the activity change, negative = toxicity was 18.4% (inactive).
For `COC(=O)C1=NN(C(=O)c2cccc(Br)c2)C(O)(c2ccc(Cl)cc2)C1` (stereo unspecified), the activity change, negative = toxicity was -0.434% (inactive).
For `CC1CCN(c2ccc3c(c2)S(=O)(=O)c2ccccc2C3=O)CC1`, the activity change, negative = toxicity was -1.31% (inactive).
In the case of `CC(=O)NC(c1ccc(C)cc1)c1cc([N+](=O)[O-])c2cccnc2c1O` (stereo unspecified), the activity change, negative = toxicity was -0.602% (inactive).
With `CN(C)c1nc(SCc2ccc(Cl)cc2)nc2c1CCCC2` the activity change, negative = toxicity was 9.05% (inactive).
In the case of `Cc1cccc(Oc2nc(-c3ccccn3)nc3ccccc23)c1`, the activity change, negative = toxicity was 18.9% (inactive).
For `c1ccc(CSc2ccc(-c3ccccn3)nn2)nc1`, the activity change, negative = toxicity was -13% (inactive).
In the case of `Cc1ccc(C(=O)C(SC(C)(C)C)n2cncn2)cc1` (stereo unspecified), the activity change, negative = toxicity was 10.4% (inactive).
With `CN(c1ccccc1)c1nc(N2CCCC2)nc(-n2ccnc2)n1` the activity change, negative = toxicity was 11.2% (inactive).
With `CCCCNC(=S)N/N=C1\CCCCc2ccccc21` the activity change, negative = toxicity was 1.99% (inactive).
For `CCCCCCCc1ccc(-c2ccc(O)cc2)nc1`, the activity change, negative = toxicity was 25.5% (inactive).
For `FC(F)(F)c1nc(SCc2ccc(Cl)cc2Cl)n[nH]1`, the activity change, negative = toxicity was -4.01% (inactive).
For `Clc1ccccc1C(c1ccccc1)(c1ccccc1)n1ccnc1`, the activity change, negative = toxicity was 10.3% (inactive).
In the case of `C=C(C)COc1ccc(-c2[nH]ncc2-c2ccc(Br)cc2)c(O)c1`, the activity change, negative = toxicity was 1.03% (inactive).
With `CCOC(=O)c1ccc(NC(=S)N(Cc2cccnc2)Cc2ccco2)cc1` the activity change, negative = toxicity was 2.56% (inactive).
For `O=C(CSc1ccc(-c2ccccn2)nn1)c1ccccc1`, the activity change, negative = toxicity was -10.1% (inactive).
For `Cc1cc(Cl)ccc1C(=O)C1CCCN(C(=O)c2cncs2)C1` (stereo unspecified), the activity change, negative = toxicity was 14.2% (inactive).
With `O=C(c1ccccc1)c1ccc(Cn2cc(-c3ccccc3)nn2)cc1` the activity change, negative = toxicity was 5.39% (inactive).
For `Cc1ccc2c(C)c3ccc4ccccc4c3c[n+]2c1`, the activity change, negative = toxicity was 11.9% (inactive).
For `O=C(c1ccc(Cl)cc1)N1CCN(c2ccc(F)cc2)CC1`, the activity change, negative = toxicity was 5.81% (inactive).
In the case of `COc1cccc(CC(=O)Nc2ccc3nc(C)sc3c2)c1`, the activity change, negative = toxicity was 14.6% (inactive).
For `FC(F)(F)c1cccc(N2CCc3cn[nH]c32)c1`, the activity change, negative = toxicity was -9.14% (inactive).
With `O=C(CC1CC2CCC1C2)Nc1nc(-c2ccccn2)cs1` (stereo unspecified) the activity change, negative = toxicity was 10.2% (inactive).
In the case of `CC(C)(C)C(O)C(Cc1ccccc1Cl)n1cncn1` (stereo unspecified), the activity change, negative = toxicity was -1.54% (inactive).
For `CCc1ccc(S(=O)(=O)N(C(=O)c2ccncc2)c2ccc(OC(=O)c3ccncc3)cc2)cc1`, the activity change, negative = toxicity was 12.1% (inactive).
For `COc1cccc(C(C)=C2SC(=S)NC2=O)c1`, the activity change, negative = toxicity was 1.04% (inactive).
For `CC1=NN(C(N)=S)C(=O)C1N=Nc1cccc(Cl)c1C` (stereo unspecified), the activity change, negative = toxicity was -14.8% (inactive).
With `OCCN(CCO)c1cc2c3ccccc3ccc2c2ccccc12` the activity change, negative = toxicity was -14.3% (inactive).
In the case of `CCn1c2ccc(C)cc2c2nc3cc(C(=O)O)ccc3nc21`, the activity change, negative = toxicity was -4.25% (inactive).
For `CC(C)=CCc1c(O)ccc(C(=O)Cc2ccccc2)c1O`, the activity change, negative = toxicity was -2.45% (inactive).
For `CCC1=NN(C(=O)c2cccc(Br)c2)C(O)(c2ccc(Br)cc2)C1` (stereo unspecified), the activity change, negative = toxicity was 4.18% (inactive).
In the case of `Nc1nc(-c2ccccc2)c(-c2ccc([N+](=O)[O-])cc2)s1`, the activity change, negative = toxicity was 15.2% (inactive).
With `CCC(Oc1ccc(Br)cc1Cl)C(=O)Nc1nnc(C2CC2)s1` (stereo unspecified) the activity change, negative = toxicity was 5.54% (inactive).
For `COc1ccc(-c2cc(C(=O)N3CCN(c4ccccc4F)CC3)c3ccccc3n2)c(OC)c1`, the activity change, negative = toxicity was -9.73% (inactive).
For `Cc1ccc(Nc2cc(C)nn2-c2nc(C)cc(C)n2)cc1`, the activity change, negative = toxicity was -3.61% (inactive).
With `CC12CCC(O)CC1=CCC1C2CCC2(C)C3=NN=CC3CC12` (stereo unspecified) the activity change, negative = toxicity was 6.4% (inactive).
For `Cc1ccc(Sc2cc(C)nc(-c3ccccn3)n2)cc1`, the activity change, negative = toxicity was 11.7% (inactive).
With `COc1ccc(Sc2nc(-c3ccccn3)ncc2OC)cc1` the activity change, negative = toxicity was 5.95% (inactive).
With `Cc1cccc(NC(=S)NC(C)CCc2ccccc2)c1` (stereo unspecified) the activity change, negative = toxicity was 12.9% (inactive).
In the case of `O=C(Nc1ccc(Br)c(C(F)(F)F)c1)c1ccccc1`, the activity change, negative = toxicity was -9.98% (inactive).
In the case of `O=C(Nc1nnc(-c2ccccc2)o1)c1ccc(Cl)cc1`, the activity change, negative = toxicity was 29.9% (inactive).
With `Nc1nc2sc3c(c2c(=O)s1)CCCC3` the activity change, negative = toxicity was 13.7% (inactive).
With `Cc1ccc(NS(=O)(=O)c2ccc(N3CCN(c4ccc(O)cc4)CC3)c([N+](=O)[O-])c2)c(C)c1` the activity change, negative = toxicity was 24.6% (inactive).
With `CC(=O)C1=C(c2cccc([N+](=O)[O-])c2)N(C(C)=O)n2c(C)nnc2S1` the activity change, negative = toxicity was 4.36% (inactive).

Test system: NIH3T3 viability, CellTiter-Glo ATP luminescence
Assay: as above
Details: not given
In the case of `Cc1cccc2sc(NNC(=O)c3ccc(S(=O)(=O)N4CCCC(C)C4)cc3)nc12` (stereo unspecified), the AC35 was 40.5 µM.
Work on `O=C1c2cc(F)ccc2-n2c1nc1ccccc1c2=O` yielded an AC35 of 50 µM.
`CC1CCN(c2nc(-c3ccncc3)nc3ccccc23)CC1` showed an AC35 of 49.6 µM.
For `CC(C)N1CCN(c2ccc(OCC3COC(Cn4cncn4)(c4ccc(Cl)cc4Cl)O3)cc2)CC1` (stereo unspecified), the AC35 was 12.4 µM.
Work on `O=C(Nc1nc(-c2ccccn2)cs1)c1ccc(Br)s1` yielded an AC35 of 27.1 µM.
In the case of `CN(C)c1nc(-c2ccccn2)nnc1-c1ccccc1`, the AC35 was 43.5 µM.
`CCc1cc(SC#N)cc(C)c1NC(=O)CCl` showed an AC35 of 49.6 µM.
`Cc1[nH]n(-c2ccccc2)c(=O)c1/C=N/Nc1nncc(-c2ccccc2)n1` gave an AC35 of 19.5 µM.
For `Oc1ccc(N=Nc2ccc3c(c2)OCCO3)c2cccnc12`, the AC35 was 50.2 µM.
Molecule `COc1ccc(O)c(C(=O)CC(=O)c2ccc(F)cc2)c1` has an AC35 of 52.3 µM.
Molecule `CC(C)N1CCN(c2ccc(OC[C@H]3CO[C@](Cn4cncn4)(c4ccc(Cl)cc4Cl)O3)cc2)CC1` has an AC35 of 30.8 µM.
For `C=C1C(=O)C23CCC4C(C)(C(=O)OC)CCCC4(C)C2CCC1(O)C3` (stereo unspecified), the AC35 was 10.1 µM.
Work on `Cc1oc2c(c1C(=O)c1ccccc1)C(=O)C(=O)c1ccccc1-2` yielded an AC35 of 8.43 µM.
With `Cc1ccc(Cl)cc1NC1=C/C(=N\S(=O)(=O)c2cccs2)c2ccccc2C1=O` the AC35 was 8.07 µM.
With `CC(=O)C1=C(c2ccc(Br)cc2)C(=O)c2ccccc2C1=O` the AC35 was 26.2 µM.
`Cc1ccc(S(=O)(=O)Nc2ccc(O)c3cccnc23)cc1` gave an AC35 of 33 µM.
Work on `Oc1ccc(/C=N/Nc2ccc(C(F)(F)F)cn2)c(O)c1` yielded an AC35 of 43.9 µM.
`CN(Cc1ccc(Cl)s1)C(=O)CCl` showed an AC35 of 25 µM.
Molecule `CCCCOC(=O)/C=C/c1ccc(OC(=O)OC)c(OC(=O)OC)c1` has an AC35 of 50.7 µM.
For `CCCCNc1c(-c2cccc(-c3ccc(OC)cc3)c2)nc2ccc(C)cn12`, the AC35 was 22.7 µM.
`CCCCNc1c(-c2cccc(Sc3ccc(OC)cc3)c2)nc2ccccn12` showed an AC35 of 39.2 µM.
Molecule `CC[n+]1c(/C=C/C=C/c2ccc(N(C)C)cc2)sc2ccccc21` has an AC35 of 24.4 µM.
